These results are taken from ChEMBL document CHEMBL5579870, “Integrating Neuroprotective and Anti-inflammatory Strategies in the Development of PI3K Inhibitors for Enhanced Cancer Therapy” (ACS Med Chem Lett, 2024).

One data set deals with T47D. Put plainly: Antiproliferative activity against human T47D cells expressing PI3Kalpha H1047R mutant assessed as inhibition of cell proliferation measured after 72 hrs by CellTiter-Glo reagent based assay. In kind it is functional.
Data set [1] is described as follows: Cytotoxicity against human SK-BR-3 cells expressing wild type PI3Kalpha assessed as inhibition of cell proliferation measured after 72 hrs by CellTiter-Glo reagent based assay. In kind it is toxicity. In general terms: ATP-based viability assays read luminescence as a measure of living cells.
Data set [2] in a line: Oral bioavailability in CD-1 mouse at 10 mg/kg by LC/MS/MS analysis. Format: ADME, organism-based. To be noted: in vivo.
Data set [3] is described as follows: AUC(last) in CD-1 mouse at 10 mg/kg, po by LC/MS/MS analysis. In kind it is ADME, organism-based. Particulars: in vivo.

A value given as a limit tells only on which side of the number the result lay.

On to `Cc1cc(C(C)Nc2ccc(F)cc2C(=O)O)c2nc(N3CCN(CC(F)(F)F)CC3)n(C)c(=O)c2c1` (stereo not drawn), for which the EC50 with T47D came out at 1 nM. Further, in data set [1], the EC50 at 72 h is 2000 nM.
On the same counts, the results for `Cc1cc(C(C)Nc2ccc(Cl)cc2C(=O)O)c2nc(N3Cc4ccc(F)cc4C3)n(C)c(=O)c2c1` (stereo not drawn) are 1 nM and 2000 nM.
In the same order, the values of `Cc1cc(C(C)Nc2ccccc2C(=O)O)c2nc(N3Cc4ccc(C#N)cc4C3)n(C)c(=O)c2c1` (stereo not drawn) are 1 nM and greater than 15000 nM.
On the same counts, the results for `Cc1cc(C(C)Nc2ccccc2C(=O)O)c2nc(N3CC[Si](C)(C)CC3)n(C)c(=O)c2c1` (stereo not drawn) are 500 nM and 2000 nM.
Consider `CC(Nc1ccccc1C(=O)O)c1cc(Cl)cc2c(=O)n(C)c(N3CCN(CC(F)(F)F)CC3)nc12` (stereo not drawn), for which the EC50 in the data set with T47D is 500 nM. Also, in data set [1], the EC50 at 72 h was greater than 15000 nM.
On the same counts, the results for `CC(Nc1ccccc1C(=O)O)c1cc(C(F)(F)F)cc2c(=O)n(C)c(N3CCN(CC(F)(F)F)CC3)nc12` (stereo not drawn) are 500 nM and 2000 nM.
Regarding `CC(Nc1ccc(F)cc1C(=O)O)c1cc(F)cc2c(=O)n(C)c(N3CCN(CC(F)(F)F)CC3)nc12` (stereo not drawn), in the data set with T47D, the half-maximal effective concentration (EC50) worked out at 1 nM. The concentration giving a half-maximal response (EC50) at 72 h in data set [1] was greater than 15000 nM.
In data set [2], `Cc1cc(C(C)Nc2ccc(F)cc2C(=O)O)c2nc(N3CCC(C)(C)CC3)n(C)c(=O)c2c1` (stereo not drawn) registered a bioavailability of 61%. Besides, the EC50 in the data set with T47D stood at 1 nM. Also, the half-maximal effective concentration (EC50) at 72 h in data set [1] was determined as 2000 nM. Further, the area under the curve AUC(0-t) in data set [3] was 10700 ng·h/mL.

Usually EC50 stands for the midpoint of the concentration-response curve. The bioavailability is dose-corrected exposure relative to a reference, in per cent. A lower bioavailability goes with little systemic uptake. One may read the AUC(0-t) as exposure summed from dosing to a finite time, without extrapolation to infinity. A higher AUC(0-t) goes with high exposure.
